Source: patent publication US20190023743A1, “METHODS AND COMPOSITIONS FOR MODULATING DRUG-POLYMER ARCHITECTURE, PHARMACOKINETICS AND BIODISTRIBUTION” (priority 2007, published 2019)

Key:
[1] = tested on: C26 colon carcinoma tumor; assay: Survival of tumor-bearing mice, C26 colon carcinoma; assay type: in vivo, Balb/C mice; conditions: free doxorubicin 12.5, micelle 25 mg drug/kg body weight, sacrificed after >15% body weight loss, Kaplan Meier analysis
Description: Eight days after subcutaneous implantation of C26 colon carcinoma tumor cells, Balb/C mice were randomized and treated. The mice were systemically administered either a PBS control or does of approximately equal toxicity of free doxorubicin at 12.5 mg drug/kg body weight or 25 mg drug/kg body weight micelle doxorubicin-ELP. Mice were sacrificed after losing >15% of their body weight due to tumor burden. The treatment groups were blinded during measurement.
The data shown in FIG. 13 were determined as follows: Eight days after subcutaneous implantation of C26 colon carcinoma tumor cells, Balb/C mice were randomized and treated. […] The mice were sacrificed after losing >15% of their body weight due to tumor burden. The treatment groups were blinded during measurement.

[2] = 4 days post administration; free doxorubicin 12.5, micelle 25, unimer 6.3 mg drug/kg body weight; Balb/C mice bearing C26 tumors
Description: Animals dosed near the maximum tolerated amount of doxorubicin lose body weight, and weight loss 4 days post doxorubicin administration is used in this experiment as a gross indicator of toxicity. Balb/C mice bearing C26 colon carcinoma tumors were systemically administered PBS, free doxorubicin, micelle doxorubicin-ELP, or unimer doxorubicin-ELP at 0, 12.5, 25, and 6.3 mg drug/kg body weight respectively. […] Error bars indicate the standard deviation (n=5).
The toxicity of doxorubicin-ELP was estimated by body weight loss. Animals that were dosed near the maximum tolerated amount of free doxorubicin, micelle doxorubicin-ELP or unimer doxorubicin-ELP lost body weight, and the weight observed 4 days after the injection of the doxorubicin composition was taken as a gross indicator of toxicity. Balb/C mice bearing C26 colon carcinoma tumors were systemically administered either PBS as a control or free doxorubicin, micelle doxorubicin-ELP, or unimer doxorubicin-ELP at 12.5, 25, and 6.3 mg drug/kg body weight, respectively. […] Error bars indicate the standard deviation (n=5).

Q: For `COc1cccc2c1C(=O)c1c(O)c3c(c(O)c1C2=O)C[C@@](O)(C(=O)CO)C[C@@H]3O[C@H]1C[C@H](N)[C@H](O)[C@H](C)O1` [free doxorubicin, doxorubicin], which survival time [1] is on record?
A: did not significantly effect survival time

Q: And the survival time ([1]; listed as Free doxorubicin)?
A: did not have any significant effect on survival

Q: And the “toxicity estimated by body weight loss” value [2]?
A: approximately equally toxic
